According to the supplement of paper PMC11061612:

What was measured:
Test in all cases: Bliss excess, mean over the matrix (fraction); higher = more synergy
A498 (Kidney Carcinoma) = test system: A498 (Kidney Carcinoma)
How it was run: (§1)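 After 24 hours at 37°C and 5% CO2 in 1536-well plates, cells in DMEM/F12 or RPMI plus 10% FBS received two-drug dose matrices for 72 hours. Viability came from CellTiter-Glo 2.0 luminescence and was scaled as inhibition, anchored at 0 by vehicle wells and at 1 by blank wells. Combination Emax is taken as the second-highest inhibition in the matrix, and Bliss excess as the observed combination effect less EA + EB − EA·EB, with EA and EB the single-agent effects.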

ARH-77 (Non-Cancerous) = test system: ARH-77 (Non-Cancerous)
How it was run: as §1

[1] = test system: BICR22 (Oral Cavity Carcinoma)
How it was run: as §1

[2] = test system: CAL-29 (Bladder Carcinoma)
How it was run: as §1

[3] = test system: CAPAN-2 (Pancreatic Carcinoma)
How it was run: as §1

[4] = test system: COLO-320-HSR (Colorectal Carcinoma)
How it was run: as §1

[5] = test system: COLO-824 (Breast Carcinoma)
How it was run: as §1

GI-ME-N (Neuroblastoma) = test system: GI-ME-N (Neuroblastoma)
How it was run: as §1

IGR-37 (Melanoma) = test system: IGR-37 (Melanoma)
How it was run: as §1

[6] = test system: KARPAS-422 (B-Cell Non-Hodgkin's Lymphoma)
How it was run: as §1

LN-405 (Glioblastoma) = test system: LN-405 (Glioblastoma)
How it was run: as §1

[7] = test system: NCI-H1650 (Lung Adenocarcinoma)
How it was run: as §1

[8] = test system: NCI-H2066 (Squamous Cell Lung Carcinoma)
How it was run: as §1

[9] = test system: NCI-H64 (Small Cell Lung Carcinoma)
How it was run: as §1

[10] = test system: ONS-76 (Other Solid Carcinomas)
How it was run: as §1

[11] = test system: OS-RC-2 (Kidney Carcinoma)
How it was run: as §1

PA-1 (Ovarian Carcinoma) = test system: PA-1 (Ovarian Carcinoma)
How it was run: as §1

[12] = test system: PANC-10-05 (Pancreatic Carcinoma)
How it was run: as §1

[13] = test system: SISO (Cervical Carcinoma)
How it was run: as §1

[14] = test system: SK-MES-1 (Squamous Cell Lung Carcinoma)
How it was run: as §1

| Structure (SMILES) | Bliss excess (A498 (Kidney Carcinoma)) | Bliss excess (ARH-77 (Non-Cancerous)) | Bliss excess [1] | Bliss excess [2] | Bliss excess [3] | Bliss excess [4] | Bliss excess [5] | Bliss excess (GI-ME-N (Neuroblastoma)) | Bliss excess (IGR-37 (Melanoma)) | Bliss excess [6] | Bliss excess (LN-405 (Glioblastoma)) | Bliss excess [7] | Bliss excess [8] | Bliss excess [9] | Bliss excess [10] | Bliss excess [11] | Bliss excess (PA-1 (Ovarian Carcinoma)) | Bliss excess [12] | Bliss excess [13] | Bliss excess [14] |
| --- | --- | --- | --- | --- | --- | --- | --- | --- | --- | --- | --- | --- | --- | --- | --- | --- | --- | --- | --- | --- |
| CN(CCO)CC[C@H](CSc1ccccc1)Nc1ccc(S(=O)(=O)NC(=O)c2ccc(N3CCC([C@@H](O)c4ccccc4-c4ccc(Cl)cc4)CC3)cc2)cc1S(=O)(=O)C(F)(F)F [AZD4320] + Cc1cc2ncnn2cc1Nc1ncc2c(n1)n(C1CCOCC1)c(=O)n2C [AZD7648] (first compound max 1 µM, 7x7, partner max 10 µM) | -0.0393 | 0.0238 | -0.0054 | -0.0074 | -0.0217 | -0.0099 | 0.006 | -0.0775 | -0.0132 | -0.0071 | 0.0012 | -0.0227 | 0.0299 | -0.0449 | -0.0301 | -0.0524 | 0.0302 | -0.0652 | -0.0328 | -0.0632 |
| CN(CCO)CC[C@H](CSc1ccccc1)Nc1ccc(S(=O)(=O)NC(=O)c2ccc(N3CCC([C@@H](O)c4ccccc4-c4ccc(Cl)cc4)CC3)cc2)cc1S(=O)(=O)C(F)(F)F [AZD4320] + Cn1cnc2c(F)c(Nc3ccc(Br)cc3Cl)c(C(=O)NOCCO)cc21 [Selumetinib] (first compound max 1 µM, 7x7, partner max 3 µM) | 0.0329 | -0.0039 | -0.0468 | 0.0826 | 0.0819 | 0.0102 | -0.0523 | 0.0196 | -0.0039 | -0.0387 | -0.061 | 0.0245 | 0.0432 | 0.0427 | 0.019 | 0.0178 | 0.144 | 0.0065 | 0.0504 | 0.0282 |
| COc1nnc2ccc(N3CCC(c4ccc(OCCN5CCN(C)C(=O)[C@H]5C)cc4)CC3)nn12 [AZD5153] + C=CCn1c(=O)c2cnc(Nc3ccc(N4CCN(C)CC4)cc3)nc2n1-c1cccc(C(C)(C)O)n1 [AZD1775] (first compound max 1 µM, partner max 1 µM) | 0.0142 | -0.066 | -0.0972 | -0.0699 | -0.0202 | -0.0801 | -0.0551 | -0.0231 | -0.0569 | -0.108 | -0.042 | -0.015 | -0.0503 | -0.0114 | -0.0505 | -0.0324 | -0.043 | -0.132 | -0.0346 | 0.0183 |
